Results from ChEMBL document CHEMBL1201862, “PubChem BioAssay data set” (2004).
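These data come from cells grown in 96-well plates and exposed to compound for 48 hours at five concentrations. Here, GI50 denotes the concentration required for 50% inhibition of growth.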 The source made the active and inactive calls. Rule as the data show it: active = GI50 up to about 1.1 µM and inactive = higher.

Tests used:
Test in all cases: inhibition of tumour cell growth, NCI panel, 48 h
[1] = tested on: NCI-H23
[2] = tested on: SF-268
[3] = tested on: RXF 393
[4] = tested on: HCC 2998
[5] = tested on: SNB-75
[6] = tested on: HOP-92
[7] = tested on: NCI/ADR-RES
[8] = tested on: UO-31
[9] = tested on: SNB-19
[10] = tested on: SK-OV-3
[11] = tested on: COLO 205
[12] = tested on: U-251
[13] = tested on: OVCAR-3
[14] = tested on: K562
[15] = tested on: Malme-3M
[16] = tested on: MDA-MB-231
[17] = tested on: OVCAR-5
[18] = tested on: SR
[19] = tested on: HL-60
[20] = tested on: SF-295
[21] = tested on: IGROV-1
[22] = tested on: T47D
[23] = tested on: UACC-62
[24] = tested on: KM12
[25] = tested on: OVCAR-8
[26] = tested on: 786-0
[27] = tested on: SK-MEL-28
[28] = tested on: UACC-257
[29] = tested on: A549
[30] = tested on: CAKI-1
[31] = tested on: HOP-62
[32] = tested on: MCF7
[33] = tested on: HCT-116
[34] = tested on: MDA-MB-435
[35] = tested on: SW-620
[36] = tested on: TK-10
[37] = tested on: PC-3
[38] = tested on: CCRF-CEM
[39] = tested on: EKVX
[40] = tested on: OVCAR-4
[41] = tested on: RPMI-8226
[42] = tested on: HCT-15
[43] = tested on: MDA-N
[44] = tested on: NCI-H522
[45] = tested on: LOX IMVI
[46] = tested on: SN12C
[47] = tested on: SK-MEL-2
[48] = tested on: SF-539
[49] = tested on: Hs-578T
[50] = tested on: HT-29
[51] = tested on: BT-549
[52] = tested on: MOLT-4
[53] = tested on: ACHN
[54] = tested on: DU-145
[55] = tested on: SK-MEL-5
[56] = tested on: NCI-H460
[57] = tested on: M14
[58] = tested on: NCI-H226
[59] = tested on: A498

Measured: GI50

Fc1cccc(F)c1C1SCc2nc3cc(Cl)ccc3n21 (stereo not given)
28.6 µM: [42]
inactive: [1] 28.5 µM | [2] > 100 µM | [3] 48.8 µM | [4] 22.7 µM | [5] 40.1 µM | [6] 36.6 µM | [7] 24.2 µM | [8] 19.2 µM | [9] 92.5 µM | [10] 80.2 µM | [11] 17.9 µM | [12] 22 µM | [13] 46 µM | [14] 35.1 µM | [15] 17 µM | [16] 55.1 µM | [17] 84.1 µM | [18] 17.8 µM | [19] 14 µM | [20] 33.2 µM | [21] > 42.9 µM | [22] 31.2 µM | [23] 37.9 µM | [24] 22.8 µM | [25] 58.7 µM | [26] 25.7 µM | [27] 50.8 µM | [28] 32.8 µM | [29] 31.3 µM | [30] 16.6 µM | [31] > 100 µM | [32] 15 µM | [33] 18.5 µM | [34] 33 µM | [35] 38.7 µM | [36] > 100 µM | [37] 34.4 µM | [38] 25.6 µM | [39] 36.6 µM | [40] 35.9 µM | [41] 22.7 µM | [43] 32.8 µM | [44] 39.7 µM | [45] 18.5 µM | [46] 56.5 µM | [47] 30.6 µM | [48] 80.9 µM | [49] > 44.7 µM | [50] 15.2 µM | [51] 21.9 µM | [52] 14 µM | [53] 31.3 µM | [54] 68.5 µM | [55] 16 µM | [56] 41.5 µM | [57] 31 µM

O=C1NCc2ccccc2S(=O)(=O)n2cccc21
> 100 µM: [42]
inactive: [1] > 100 µM | [2] > 100 µM | [58] > 100 µM | [4] > 100 µM | [5] > 100 µM | [7] > 100 µM | [8] > 100 µM | [9] > 100 µM | [10] > 100 µM | [11] > 100 µM | [12] > 100 µM | [13] > 100 µM | [15] > 100 µM | [16] > 100 µM | [17] > 100 µM | [18] 6.28 µM | [19] > 100 µM | [20] > 100 µM | [21] > 100 µM | [22] 50.7 µM | [23] > 100 µM | [24] > 100 µM | [25] > 100 µM | [26] > 100 µM | [27] > 100 µM | [28] > 100 µM | [29] > 100 µM | [30] > 100 µM | [31] > 100 µM | [32] > 100 µM | [33] 63.1 µM | [34] > 100 µM | [35] > 100 µM | [36] > 100 µM | [37] > 100 µM | [38] > 100 µM | [39] > 100 µM | [40] > 100 µM | [41] > 100 µM | [43] > 100 µM | [44] 85.7 µM | [45] > 100 µM | [46] > 100 µM | [47] 64.4 µM | [48] > 100 µM | [49] > 100 µM | [50] > 100 µM | [51] > 100 µM | [52] > 100 µM | [53] > 100 µM | [54] > 100 µM | [55] > 100 µM | [56] > 100 µM | [57] > 100 µM

C#CCn1c(=O)c(I)cn(/C(=C/C(=O)OCC)C(=O)OCC)c1=O
inactive: [1] 15.3 µM | [2] 9.44 µM | [58] 25.7 µM | [3] 3.61 µM | [5] 17.2 µM | [6] 1.75 µM | [7] 18.9 µM | [8] 1.53 µM | [9] 18.3 µM | [10] 17.9 µM | [59] 19.1 µM | [12] 16.6 µM | [13] 1.78 µM | [15] 1.52 µM | [16] 15.2 µM | [17] 16.2 µM | [19] 1.64 µM | [20] 39.7 µM | [21] 15.7 µM | [23] 5.42 µM | [24] 18 µM | [25] 3.56 µM | [26] 1.63 µM | [27] 8 µM | [28] 3.06 µM | [29] 18 µM | [30] 1.86 µM | [31] 17.5 µM | [32] 2.12 µM | [33] 1.85 µM | [34] 7.6 µM | [35] 1.18 µM | [37] 5.06 µM | [38] 3.53 µM | [39] 2.94 µM | [40] 8.22 µM | [43] 3.37 µM | [45] 4.95 µM | [46] 15.9 µM | [47] 15.5 µM | [48] 7.21 µM | [49] 15 µM | [50] 12.6 µM | [51] 11.5 µM | [53] 1.67 µM | [54] 10 µM | [56] 23.4 µM | [57] 1.78 µM
2.74 µM: [42]
active: [11] 0.667 µM | [14] 0.659 µM | [22] 0.818 µM | [36] 0.3 µM | [41] 0.746 µM | [44] 0.649 µM | [52] < 0.0195 µM

C/C(CC1C2CCCC1C2)=N\NC(N)=O (stereo not given)
inactive: [1] > 100 µM | [2] > 100 µM | [58] > 100 µM | [4] > 100 µM | [5] > 100 µM | [6] > 100 µM | [7] > 100 µM | [8] > 100 µM | [9] > 100 µM | [10] > 100 µM | [11] > 100 µM | [12] > 100 µM | [13] 7.24 µM | [15] > 100 µM | [16] > 100 µM | [17] > 100 µM | [18] > 100 µM | [19] > 100 µM | [20] > 100 µM | [21] > 100 µM | [22] > 100 µM | [23] > 100 µM | [24] > 100 µM | [25] > 100 µM | [26] > 100 µM | [27] > 100 µM | [28] > 100 µM | [29] > 100 µM | [30] > 100 µM | [31] > 100 µM | [32] > 100 µM | [33] > 100 µM | [34] > 100 µM | [35] > 100 µM | [36] > 100 µM | [37] > 100 µM | [38] > 100 µM | [39] > 100 µM | [40] > 100 µM | [41] > 100 µM | [43] > 100 µM | [44] > 100 µM | [45] > 100 µM | [46] > 100 µM | [47] > 100 µM | [48] > 100 µM | [49] > 100 µM | [50] > 100 µM | [51] > 100 µM | [52] > 100 µM | [53] > 100 µM | [54] > 100 µM | [55] > 100 µM | [56] > 100 µM | [57] > 100 µM
> 100 µM: [42]

CC(=S)N/C=C1/C(=O)C=C(C)OC1=O
> 100 µM: [42]
inactive: [1] > 100 µM | [2] > 100 µM | [58] > 100 µM | [3] > 100 µM | [4] > 100 µM | [5] 54.3 µM | [6] > 100 µM | [7] > 100 µM | [8] > 100 µM | [9] > 100 µM | [10] > 100 µM | [59] > 100 µM | [11] > 100 µM | [12] > 100 µM | [13] > 100 µM | [14] > 100 µM | [16] > 100 µM | [17] > 100 µM | [19] > 100 µM | [20] > 100 µM | [21] > 100 µM | [22] > 100 µM | [23] > 100 µM | [24] > 100 µM | [25] > 100 µM | [26] > 100 µM | [28] > 100 µM | [29] > 100 µM | [30] > 100 µM | [31] > 100 µM | [32] > 100 µM | [33] > 100 µM | [34] > 100 µM | [35] > 100 µM | [36] > 100 µM | [37] > 100 µM | [38] > 100 µM | [39] > 100 µM | [40] > 100 µM | [41] > 100 µM | [43] > 100 µM | [44] > 100 µM | [45] > 100 µM | [46] > 100 µM | [47] > 100 µM | [48] > 100 µM | [49] > 100 µM | [50] > 100 µM | [51] > 100 µM | [52] > 100 µM | [53] > 100 µM | [54] > 100 µM | [55] 90.2 µM | [56] > 100 µM | [57] > 100 µM
